We go through two compounds from the NIST ThermoML archive (doi:10.1016/j.tca.2010.07.023).

Structures are written as SMILES. Numbers after ± are expanded uncertainties.

Series [1] can be described thus: Molar enthalpy of transition or fusion. Particulars: DSC.
For series [2] the following is noted: DTA.

Regarding `CC1(C)[C@@H]2CC[C@@]1(C)C(=O)C2` [d-camphor], the “Molar enthalpy of transition or fusion” value in series [1] (Crystal 1) is 1.51 ± 0.12 kcal/mol; in series [1] (Crystal 2), 0.0382 ± 0.0239 kcal/mol; in series [1] (Crystal 3) it was 2.68 ± 0.12 kcal/mol. Besides, the Triple point temperature in series [2] (Crystal 1) was found to be 451.8 ± 1.4 K; in series [2] (Crystal 2), 370 ± 4 K; in series [2] (Crystal 3), 242.7 ± 1.4 K.
Take `CC12CCC(CC1=O)C2(C)C` (configuration not stated) [1,7,7-trimethylbicyclo[2.2.1]-2-heptanone]: the “Molar enthalpy of transition or fusion” value is 1.41 ± 0.0717 kcal/mol in series [1] (Crystal 1), 0.0406 ± 0.0239 kcal/mol in series [1] (Crystal 2) and 0.311 ± 0.0717 kcal/mol in series [1] (Crystal 3). The Triple point temperature in series [2] (Crystal 1) is reported as 448 ± 1.5 K; in series [2] (Crystal 2), 364 ± 5 K; in series [2] (Crystal 3), 206.1 ± 1.4 K.
